The test system of experiment [1] is Mus musculus. As to the kind of experiment: Reduction in insulin-induced protein tyrosine phosphorylation in liver of ob/ob mice at 10 mg/kg perorally. Format: functional. The conditions noted are these: route oral.
For experiment [2], the system named is Mus musculus. As to the kind of experiment: Reduction in insulin-induced protein tyrosine phosphorylation in liver of ob/ob mice at 25 mg/kg perorally. Format: functional. The conditions noted are these: route oral.
Experiment [3] concerns the target T1, Tyrosine-protein phosphatase non-receptor type 1 (Homo sapiens, UniProt P18031).
T1 sequence (P18031 whole entry): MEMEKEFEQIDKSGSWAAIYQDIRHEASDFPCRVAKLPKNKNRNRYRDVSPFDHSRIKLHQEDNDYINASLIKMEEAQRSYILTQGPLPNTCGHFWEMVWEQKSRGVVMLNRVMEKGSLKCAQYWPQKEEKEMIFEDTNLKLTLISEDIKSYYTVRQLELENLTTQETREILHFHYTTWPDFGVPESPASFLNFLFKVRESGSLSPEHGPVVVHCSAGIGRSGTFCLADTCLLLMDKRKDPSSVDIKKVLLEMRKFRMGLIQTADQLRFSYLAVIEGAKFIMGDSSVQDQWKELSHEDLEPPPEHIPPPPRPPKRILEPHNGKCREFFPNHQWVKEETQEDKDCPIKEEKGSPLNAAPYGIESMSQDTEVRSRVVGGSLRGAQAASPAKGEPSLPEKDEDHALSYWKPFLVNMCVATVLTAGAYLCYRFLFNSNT
As to the kind of experiment: Compound was evaluated for the inhibitory activity against recombinant Protein-tyrosine phosphatase 1B using, phosphotyrosyl dodecapeptide [TRDI(P)YETD(P)Y(P)YRK] as substrate.

In the experiment on Mus musculus [1], `Cc1oc2cc3sc4ccccc4c3c(-c3cc(I)c(O[C@H](Cc4ccccc4)C(=O)O)c(I)c3)c2c1C` showed an Insulin lowering effect of 43%. Usually IC50 stands for the point on the concentration scale where inhibition reaches its midpoint. `O=C(O)[C@@H](Cc1ccccc1)Oc1c(I)cc(-c2c3ccccc3cc3sc4ccccc4c23)cc1I` displayed an Insulin lowering effect in the experiment with Mus musculus [2] of 68%. The IC50 in experiment [3] was determined as 179 nM.

Values taken from ChEMBL document CHEMBL1133228, “Synthesis and PTP1B inhibition of novel 4-aryl-1-oxa-9-thiacyclopenta[b]fluorenes” (Bioorg Med Chem Lett, 2000).
